Test results published in the NIST ThermoML archive (doi:10.1021/acs.jced.7b00971).

Tests used:
[1] = 101 kPa, Liquid, Capillary tube (Ostwald / Ubbelohde) method
[2] = xn = mol fraction of the nth substance listed; conditions: 101 kPa, Liquid, Capillary tube (Ostwald / Ubbelohde) method

Cc1ccccc1C [1,2-dimethylbenzene]
[1]
Conditions	viscosity [mPa·s]
303.15 K	0.71
308.15 K	0.666
313.15 K	0.628
318.15 K	0.591
323.15 K	0.56

Cc1ccccc1C [1,2-dimethylbenzene] + CO
viscosity [mPa·s], [2]
Conditions	x2 = 0	x2 = 0.1007	x2 = 0.2013	x2 = 0.2961	x2 = 0.403	x2 = 0.5003	x2 = 0.601	x2 = 0.7025	x2 = 0.8006	x2 = 0.9013
303.15 K	0.71	0.684	0.674	0.671	0.666	0.663	0.655	0.638	0.61	0.567
308.15 K	0.666	0.641	0.631	0.626	0.621	0.617	0.607	0.595	0.567	0.53
313.15 K	0.628	0.603	0.591	0.587	0.582	0.577	0.569	0.554	0.531	0.495
318.15 K	0.591	0.566	0.555	0.55	0.543	0.538	0.531	0.516	0.494	0.462
323.15 K	0.56	0.535	0.523	0.517	0.511	0.506	0.496	0.484	0.462	0.434

Cc1cccc(C)c1 [1,3-dimethylbenzene]
[1]
Conditions	viscosity [mPa·s]
303.15 K	0.554
308.15 K	0.524
313.15 K	0.498
318.15 K	0.472
323.15 K	0.452

Cc1cccc(C)c1 [1,3-dimethylbenzene] + CO
viscosity [mPa·s], [2]
Conditions	x2 = 0	x2 = 0.1008	x2 = 0.2003	x2 = 0.2999	x2 = 0.4	x2 = 0.4997	x2 = 0.6003	x2 = 0.7001	x2 = 0.8001	x2 = 0.9012
303.15 K	0.554	0.539	0.542	0.548	0.553	0.56	0.566	0.57	0.565	0.546
308.15 K	0.524	0.51	0.51	0.514	0.519	0.526	0.53	0.532	0.526	0.509
313.15 K	0.498	0.483	0.483	0.485	0.488	0.493	0.496	0.497	0.492	0.477
318.15 K	0.472	0.456	0.456	0.457	0.46	0.462	0.465	0.466	0.46	0.445
323.15 K	0.452	0.435	0.433	0.433	0.434	0.437	0.437	0.437	0.432	0.419
